Paper PMC8962522, “Direct interaction of TrkA/CD44v3 is essential for NGF-promoted aggressiveness of breast cancer cells” (Journal of Experimental & Clinical Cancer Research : CR, 2022)

System: TrkA
Experiment: nanoDSF peptide binding to TrkA
Conditions: nanoscale differential scanning fluorimetry, Supplementary Fig. 6A & B
Method: To block the TrkA-CD44v3 association, 4 mimetic peptides of CD44v3 were designed corresponding to zone 1 [(K) STSSNTISAG], zone 2 (WEPNEENEDE), zone 3 (RDRHLSFSGSG) and zone 4 (IDDDEDFISST) (Fig. 2F & G). The binding capacities of the CD44v3 mimetic peptides to TrkA were then measured by MST (Fig. 2H). […] To confirm mimetic peptide 4 binding, we assessed its ability to bind TrkA using nanoscale differential scanning fluorimetry (nanoDSF; Supplementary Fig. 6A & B).
Supplementary file 13046_2022_2314_MOESM3_ESM.pdf: Additional file 3: Supplementary Figure 1. Validation of the ectopic expression of CD44 and/or TrkA in COS-7 cells. The expression of all CD44 isoforms (A), CD44 variant 3 (B), CD44 variant 6 (C) and TrkA ([…]; D) was evaluated by RT–qPCR (normalized using PUM-1). No expression of CD44, CD44 variants [3 or 6] or TrkA was detected in COS-7 cells (A-D) compared with that in cells transfected with the expression plasmid carrying each protein. […] Quantification of the PLA results was performed using ImageJ software (30 randomly chosen fields per condition of three different experiments). […] CD44v3 and CD44v6 levels at the plasma membrane were assessed by flow cytometry (A-D). The plasma membrane and total TrkA and CD44v3 levels were also quantified by confocal microscopy (E-H). […] The CD44v3/NGF interaction was evaluated using microscale thermophoresis (MST). […]

- binding to TrkA by nanoDSF (in words): bound TrkA
- binding to TrkA by nanoDSF (in words) (listed as P4): binds to TrkA
Sequence: IDDDEDFISST [Peptide 4, mimetic peptide 4 (…) corresponding to the C-terminal region of CD44v3]
